Measured values published in article PMC11926788, “Effect of SSR504734, a Selective Glycine Transporter Type 1 Inhibitor, on Seizure Thresholds, Neurotransmitter Levels, and Inflammatory Markers in Mice” (ACS Chemical Neuroscience, 2025).
Counter-ions that a name gives are not always drawn.

Key:
[1] = test system: glutamate, GABA, adenosine, glycine concentrations in cortex, hippocampus, brainstem; assay: Determination of neurotransmitters in brain structures (LC-MS/MS, HPLC-FLD); type: in vivo, mice
Protocol: Mice were administered with SSR504734 or saline acutely or repeatedly for 14 days and subjected to maximal electroshock seizures 60 min after treatment. Immediately following seizure induction, the animals were decapitated. Brains were removed from the skull and washed with ice-cold 0.9% NaCl. Cortex, hippocampus, and brainstem were isolated by microdissection and collected into Eppendorf tubes. Samples were frozen in liquid nitrogen and kept at −80 °C until the day of analysis.
Adenosine, GABA, and glutamate concentrations in mouse cortex, brainstem, and hippocampus were determined using an LC-MS/MS method. Stock solutions of GABA, adenosine, glutamate, and their internal standards (ISs), i.e., adenosine-13C5, GABA-d6, and glutamate-d5 (Toronto Research Chemicals Inc., Canada), were prepared using methanol for GABA and its IS and deionized water for adenosine, glutamate, and their ISs and stored at 4 °C. The stock solutions of GABA, adenosine, and glutamate were then appropriately diluted with acetonitrile/water 1:1 (v/v) solution to achieve various concentration levels required for the experiments. Brain tissue samples were homogenized using a Bead Ruptor Elite, bead mill homogenizer (Omni International, USA) with 90 μL of deionized water per 10 mg of tissue. The resulting homogenates were further diluted at 1:10 to 1:100 (v/v) ratios (depending on the expected analyte concentration) with acetonitrile/water 1:1 (v/v) solution. […] The supernatants were then placed in autosampler vials.
Analyte separation was performed on an Exion LC AC system (Sciex, USA) coupled with a QTRAP 4500 triple quadrupole MS instrument (Sciex, USA). A 0.2 to 2 μL aliquot of sample was injected via an autosampler maintained at 15 °C into an XBridge HILIC (Waters, Ireland) analytical column (2.1 × 150 mm, 3.5 μm) with the column oven set at 25 °C.
MS detection employed electrospray ionization (ESI) in positive ion mode. According to the results of flow-injection analysis, curtain gas was set at 30 psi, ion spray voltage at 5500 V, and the source temperature at 450 °C, with ion spray gases 1 and 2 at 50 and 40 psi, respectively.
Data acquisition and processing were conducted with Analyst version 1.7 software. The calibration curves were constructed by plotting the ratio of the peak areas of the target analytes to those of their respective ISs against the concentrations of the analytes. These curves were derived using a weighted linear regression analysis method (1/x). Due to the availability of stable isotope-labeled standards and the high endogenous concentrations of adenosine, glutamate, and GABA in the brain tissue, the calibrators were prepared in water.
Glycine concentrations in brain structures were analyzed by using high-performance liquid chromatography with fluorescence detection (HPLC-FLD). A stock solution of glycine (20 mg/mL) was prepared in water and diluted with the same solvent to prepare working standard solutions at the concentration range of 0.2–20 μg/mL. The homogenates were obtained as described above, and they were centrifuged before analysis for 5 min at 10,000 rpm (Eppendorf miniSpin centrifuge). To prepare samples for analysis, 2 μL (for brainstem) or 5 μL (for the remaining structures) of homogenate supernatants was transferred to Eppendorf tubes and diluted with water to 20 μL. […] The reaction mixture was vortexed for 15 s, spinned down to make sure that all the sample is at the bottom of the tube, and incubated for 3 min at room temperature in darkness. The aliquots of 5 μL were injected into the column. […] The EZChrom Elite Client/Server v. 3.2 software was used for data collection and analysis. […] The mobile phase consisted of methanol (solvent A) and 0.05 M phosphate buffer adjusted to pH = 4.5 with phosphoric acid 30% (solvent B) and run in a gradient mode at a flow rate of 1 mL/min.

[2] = molecular target: T1, rat GlyT1 (Rattus norvegicus, UniProt P28572); assay: GlyT1 radioligand binding ([3H]glycine, rat brain cortex, Eurofins Panlabs)
T1 construct: tissue Eurofins Panlabs Discovery Services Taiwan, Ltd. (ran the assay); host or cells: Wistar rat brain cortex
T1 sequence (P28572 1-638): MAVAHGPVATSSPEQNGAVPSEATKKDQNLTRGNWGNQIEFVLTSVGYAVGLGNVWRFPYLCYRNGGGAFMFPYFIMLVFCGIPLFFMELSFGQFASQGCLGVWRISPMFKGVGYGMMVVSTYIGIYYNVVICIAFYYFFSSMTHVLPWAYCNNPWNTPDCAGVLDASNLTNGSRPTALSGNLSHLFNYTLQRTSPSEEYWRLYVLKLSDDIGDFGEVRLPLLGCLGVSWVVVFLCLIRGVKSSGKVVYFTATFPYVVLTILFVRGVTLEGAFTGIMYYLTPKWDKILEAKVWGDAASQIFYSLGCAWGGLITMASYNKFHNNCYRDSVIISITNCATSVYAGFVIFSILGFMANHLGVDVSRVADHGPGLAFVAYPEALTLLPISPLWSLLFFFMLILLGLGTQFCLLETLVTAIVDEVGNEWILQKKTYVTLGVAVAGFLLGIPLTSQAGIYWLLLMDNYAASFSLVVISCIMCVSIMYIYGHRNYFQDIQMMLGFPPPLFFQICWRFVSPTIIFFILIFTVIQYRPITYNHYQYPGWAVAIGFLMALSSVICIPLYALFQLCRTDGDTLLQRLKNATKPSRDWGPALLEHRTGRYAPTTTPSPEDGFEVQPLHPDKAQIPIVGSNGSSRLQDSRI

[3] = test system: TNFα, IL-6, IL-1β, TLR4, IL-10, IFN-γ, IL-18 in serum; assay: Inflammatory markers in serum (ELISA); type: in vivo, mice; details: 14-day administration, 30 mg/kg i.p.
Protocol: ELISA kits were used to determine IL-1-β, IL-6, IL-10, TNF-α, and IFN-γ (EIAAB Science INC, Wuhan, Hubei, China, nos. E0563m, E0079m, E0056m, E0049m, E0133m, E0753m) and IL-18 (Biorbyt Ltd., Cambridge, United Kingdom, no. orb437211) in the liver homogenates and serum. All assays were performed according to the producer’s instructions. All samples were tested in triplicate.

[4] = acute treatment i.p., nonstimulated (sham) mice
[5] = read-out: % inhibition of control specific binding

For `O=C(NC(c1ccccc1)C1CCCCN1)c1cccc(C(F)(F)F)c1Cl` [SSR504734, 2-chloro-N-[(S)-phenyl[(2S)-piperidin-2-yl]methyl]-3-trifluoromethyl benzamide monohydrochloride], the “glutamate, GABA, adenosine, glycine concentrations in brain structures” value ([1]; 14-day treatment, nonstimulated (sham) and MES-stimulated mice) was “No alterations”, the “GABA and glycine concentrations in any of the studied brain regions” value ([1]; acute treatment i.p.) was “did not alter” and the “adenosine concentrations in cortex and hippocampus” value ([1]; acute treatment i.p.) was “no changes”. The “glutamate concentration in cortex and hippocampus” value ([1]; acute treatment i.p.) was “No alterations”, the “glutamate concentration in the brainstem” value ([1]; acute treatment i.p., mice subjected to the MES test) was “no statistically significant changes” and the “fold decrease of adenosine concentration in the brainstem” value [1, 4] was roughly 2 fold. For the same compound, the “glutamate concentration in the brainstem” value [1, 4] was “significant decrease”, the “% inhibition of control specific binding” value ([2]; 0.1 μM, rat brain cortex) was “moderate interaction” and the inhibition at 0.1 µM [2, 5] was 42%. For the same compound, the inhibition at 20 µM [2, 5] was 52%, the inhibition at 100 µM [2, 5] was 62% and the “serum concentration of IFN-γ” value [3] was “no statistically significant differences”. For the same compound, the “serum concentration of IL-1β” value [3] was “significant increase”, the “serum concentration of IL-6” value [3] was “significant increase” and the “serum concentration of IL-10” value [3] was “significant increase”. The “serum concentration of IL-18” value [3] was “no statistically significant differences”, the “serum concentration of TNFα” value [3] was “significant increase” and the “serum concentration of TRL4” value [3] was “significant increase”.
